Results published in US8030004B2, “Cell free screening assay and methods of use” (Oregon Health & Science University, priority 2005, dated 2011).
“Also recorded” adds a separate entry of the source.

Tests used:
Format in all cases: biochemical
xFANCA, xFANCF, xFANCD2 = experiment: Chromatin binding of xFA proteins in replicating S-phase Xenopus egg extracts with sperm chromatin; details: for chromatin binding of xFA proteins (xFANCA, xFANCF, xFANCD2): replicating S-phase extracts with sperm chromatin
Method: Following replication (60 minutes), chromatin was re-isolated and the same blot was assayed in series for the presence of the xFA proteins indicated. A non-specific band is indicated (asterisk) as a loading control. […] A replication assay was performed to monitor incorporation of α-^32P-GTP during one round of replication in extracts treated as indicated. Total amounts of replication products at 60 minutes following addition of sperm chromatin to non-treated or treated extracts were analyzed by agarose gel electrophoresis and exposure to X-ray film. Band density percentages were determined using a BioRad Molecular PhosphorImager Fx (Kodak screens, Quantity-1 software). […] 1000 sperm pronuclei/ul were added to replicating extracts containing different concentrations of MMC (lanes 3-9). Extracts were otherwise untreated or contained caffeine (lanes 6+7) or a neutralizing anti-xATR antibody (lanes 8+9). MMC-concentrations: 150 μM (lanes 3, 6, 8), 50 μM (lanes 4, 7, 9), or 5 μM (lane 5). […] Sperm chromatin was added to S-phase egg extracts. Xenopus egg extracts were either untreated (−) or aphidicolin was added (+) at the indicated time points following addition of sperm DNA: 0 minutes, pre-nuclear membrane formation; 30 minutes, beginning of replication; 60 minutes, mid-replication; 90 minutes late/post-replication; and 120 minutes, post replication. All chromatin fractions were re-isolated at 135 minutes following addition of sperm DNA, analyzed by SDS-PAGE and immunoblotted as indicated. […] Xenopus egg extracts were treated with beads coupled to preimmune serum (lanes 2, 3, and 5) or beads coupled to anti-xATRIP serum (lanes 1, 4, and 6). Sperm chromatin was added to preimmune or xATRIP depleted extracts and allowed to replicate. Xenopus egg extracts were either untreated or supplemented with aphidicolin (added at 50 minutes following addition of sperm DNA). Chromatin fractions were re-isolated at 70 minutes and assayed for the presence of xFANCD2, xFANCA, xATRIP and xORC-2 by immunoblotting. […]

DNA replication = DNA replication assay of sperm chromatin in S-phase Xenopus egg extracts
Method: Following replication (60 minutes), chromatin was re-isolated and the same blot was assayed in series for the presence of the xFA proteins indicated. A non-specific band is indicated (asterisk) as a loading control. […] A replication assay was performed to monitor incorporation of α-^32P-GTP during one round of replication in extracts treated as indicated. Total amounts of replication products at 60 minutes following addition of sperm chromatin to non-treated or treated extracts were analyzed by agarose gel electrophoresis and exposure to X-ray film. Band density percentages were determined using a BioRad Molecular PhosphorImager Fx (Kodak screens, Quantity-1 software). […] 1000 sperm pronuclei/ul were added to replicating extracts containing different concentrations of MMC (lanes 3-9). Extracts were otherwise untreated or contained caffeine (lanes 6+7) or a neutralizing anti-xATR antibody (lanes 8+9). MMC-concentrations: 150 μM (lanes 3, 6, 8), 50 μM (lanes 4, 7, 9), or 5 μM (lane 5). […] Sperm chromatin was added to S-phase egg extracts. Xenopus egg extracts were either untreated (−) or aphidicolin was added (+) at the indicated time points following addition of sperm DNA: 0 minutes, pre-nuclear membrane formation; 30 minutes, beginning of replication; 60 minutes, mid-replication; 90 minutes late/post-replication; and 120 minutes, post replication. All chromatin fractions were re-isolated at 135 minutes following addition of sperm DNA, analyzed by SDS-PAGE and immunoblotted as indicated. […] Xenopus egg extracts were treated with beads coupled to preimmune serum (lanes 2, 3, and 5) or beads coupled to anti-xATRIP serum (lanes 1, 4, and 6). Sperm chromatin was added to preimmune or xATRIP depleted extracts and allowed to replicate. Xenopus egg extracts were either untreated or supplemented with aphidicolin (added at 50 minutes following addition of sperm DNA). Chromatin fractions were re-isolated at 70 minutes and assayed for the presence of xFANCD2, xFANCA, xATRIP and xORC-2 by immunoblotting. […] Xenopus egg extracts were treated with beads coupled to preimmune serum (lanes 1 and 3) or beads coupled to anti-xFANCA serum (lanes 2 and 4). Sperm chromatin was added to preimmune or xFANCA depleted extracts and allowed to replicate. Xenopus egg extracts were either untreated or supplemented with aphidicolin (added at 50 minutes following addition of sperm DNA). Chromatin fractions were re-isolated at 70 minutes and assayed for the presence of xFANCA, xATRIP and xORC-2 by immunoblotting.
Preparation of Xenopus egg extracts: Extracts were prepared from Xenopus eggs according to the method of Murray (Murray, Methods Cell Biol. 36:581-605, 1991). In brief, eggs were de-jellied in 2% cysteine, pH 7.8, washed three times in XB buffer (10 mM KCl, 1 mM MgCl2, […] CaCl2, 10 mM HEPES, 5 mM ethylene glycol tetraacetic acid (EGTA), 1.75% w/v sucrose, pH 7.8) and washed three times in CSF-XB buffer (5 mM EGTA, 2 mM MgCl2). Eggs were crushed by low speed centrifugation (10,000 g, 10 minutes) and the cytoplasmic fraction was cleared by centrifugation (16,000 g, 20 minutes) after the addition of energy mix (15 mM creatine phosphate, 2 mM ATP, 2 mM MgCl2), cytochalasin B (10 μg/ml), cycloheximide (100 μg/ml), and PEFABLOC™ (4-(2-aminoethyl)benzenesulfonylfluoride) (100 μg/ml). In some of the examples described herein, the extracts were released from M to S phase by the addition of CaCl2 to a final concentration of 0.4 mM. In some examples, the released extracts were incubated for 20 minutes at 23° C. Where indicated, mitomycin C (5-150 μM) and caffeine (4 mM), Tautomycin (3 uM), etoposide (30 or 60 uM), and ICRF-193 (150 and 300 uM) were added to S-phase extracts immediately prior to the addition of DNA substrates or sperm chromatin and incubated for the time indicated; aphidicolin (50 ng/1 μl), was added at the time points indicated.

xFANCM = experiment: Xenopus egg cell free extract: xFANCM mobility shift (phosphorylation) upon addition of DNA, immunoblot; details: natural product screen membranes reprobed with xFANCM antibody (FIG. 7B)
Method: 10 ul Xenopus egg extracts was combined with 0.5 ul compound (10 mM) or curcumin (control, 23 uM) then 0.5 ul plasmid DNA (pBluescript, 3.4 ug/ul) was added. The sample was incubated for 45 min at room temperature, then 60 ul of 1×SDS loading buffer. After incubation at 95° C. for 10 min, samples were resolved onto a NUPAGE™ 3-8% tris-acetate gradient gel (Invitrogen) and transferred onto a PVDF membrane (Immobilon P, Millipore).
Of the 235 compounds tested 7 (NP-A3, NP-A7, NP-D8, NP-E3, NP-F2, NP-F8, NP-H8) were positive for modulation of xFANCD2 activation (see FIG. 14). Membranes initially probed with xFANCD2 antibody were reprobed with xFANCM antibody. […] Thus xFANCM can be used as an indicator of Fanconi anemia pathway activation.

xMre11 = experiment: Induction of xMre11-PPP by plasmid DNA in Xenopus egg cell free extracts, immunoblot
Method: FIG. 13A is a digital image of an immunoblot showing Xenopus egg cell free extracts that were incubated with 160 ng/ul circular plasmid dsDNA for 30 min in the presence or absence of the replication initiation inhibitor geminin. Efficiency of replication inhibition was measured by performing a parallel replication assay using an aliquot of the geminin-treated extract (smaller panel in figure FIG. 13A). FIG. 13B is a digital image of an immunoblot showing that non-activated, M-phase egg extracts or CaCl2-activated, S-phase egg extracts were incubated with 160 ng/ul circular plasmid dsDNA. Extract aliquots (1 ul) were taken at the indicated time points and analyzed for xFANCD2 and xMre11. […] FIG. 13C is a digital image of an immunoblot showing Xenopus egg cell free extracts that were incubated with 160 ng/ul circular plasmid dsDNA for 30 min in the presence or absence of the checkpoint kinase inhibitor caffeine. Where indicated, extracts were supplemented with the phosphatase inhibitor, tautomycin, to stabilize xMre11-PPP. Following incubation, 1 ul of extract was analyzed for xFANCD2 and xMre11 by immunoblot. DNA-free extract was used as a size control for xFANCD2-S and xMre11 (lane 1). […]

xFANCD2 = experiment: Induction of xFANCD2-L by circular plasmid dsDNA in Xenopus egg cell free extracts, immunoblot; details: for induction of xFANCD2-L in the presence of circular plasmid DNA: 200 ng/ul circular plasmid dsDNA, etoposide 30 or 60 uM, ICRF-193 150 or 300 uM
Method: FIG. 13A is a digital image of an immunoblot showing Xenopus egg cell free extracts that were incubated with 160 ng/ul circular plasmid dsDNA for 30 min in the presence or absence of the replication initiation inhibitor geminin. Efficiency of replication inhibition was measured by performing a parallel replication assay using an aliquot of the geminin-treated extract (smaller panel in figure FIG. 13A). FIG. 13B is a digital image of an immunoblot showing that non-activated, M-phase egg extracts or CaCl2-activated, S-phase egg extracts were incubated with 160 ng/ul circular plasmid dsDNA. Extract aliquots (1 ul) were taken at the indicated time points and analyzed for xFANCD2 and xMre11. […] FIG. 13C is a digital image of an immunoblot showing Xenopus egg cell free extracts that were incubated with 160 ng/ul circular plasmid dsDNA for 30 min in the presence or absence of the checkpoint kinase inhibitor caffeine. Where indicated, extracts were supplemented with the phosphatase inhibitor, tautomycin, to stabilize xMre11-PPP. Following incubation, 1 ul of extract was analyzed for xFANCD2 and xMre11 by immunoblot. DNA-free extract was used as a size control for xFANCD2-S and xMre11 (lane 1). FIG. 13D is a digital image of an immunoblot showing Xenopus egg cell free extracts that were incubated either with bead-coupled anti-xATRIP antibody or with bead-coupled pre-immune serum and incubated with 200 ng/ul circular plasmid dsDNA. Aliquots were taken at different time points and assayed for xFANCD2 by immunoblot. 1 ul of DNA-free extract was used as a size control for xFANCD2-S (lane 5). […] Xenopus egg cell free extracts containing 200 ng/ul of circular plasmid dsDNA were incubated with etoposide (30 uM, lane 2; 60 uM, lane 3) or ICRF-193 (150 uM, lane 4; 300 uM, lane 5). Xenopus egg cell free extracts containing 200 ng/ul of circular plasmid dsDNA but not topoisomerase IIα inhibitor were used as positive control and DNA-free extracts were used as negative control for induction of xFANCD2-L. […]

[1] = high concentration of circular plasmid DNA (100 ng/ul), caffeine or geminin added

CO[C@@]12[C@H](COC(N)=O)C3=C(C(=O)C(C)=C(N)C3=O)N1C[C@@H]1N[C@@H]12 [MMC, mitomycin C]
chromatin binding of xFA proteins (xFANCA, xFANCF, xFANCD2) (xFANCA, xFANCF, xFANCD2): increased | replication (incorporation of radiolabeled nucleotides into nascent DNA) (DNA replication; 60 minutes after addition of sperm chromatin (FIG. 3A top right)): reduced | DNA replication (DNA replication; MMC 150 μM): significantly blocked | DNA replication (DNA replication; lower MMC concentrations (50 μM, 5 μM)): less inhibited

C[C@@]12C(=O)OC(=O)[C@]1(C)[C@H]1CC[C@@H]2O1 [NP-B11, cantharidin]
shift corresponding to xFANCM phosphorylation upon addition of DNA (xFANCM): stimulates the post-translational modification of xFANCM or inhibits the dephosphorylation of xFANCM; also recorded: strongly stimulated

C[C@@]1(CO)[C@H](O)CC[C@@]2(C)[C@H]1CC[C@H]1C[C@@H]3C[C@@]12CC[C@]3(O)CO [aphidicolin]
chromatin binding of xFA proteins (xFANCA, xFANCF, xFANCD2) (xFANCA, xFANCF, xFANCD2): increased chromatin association

Cn1c(=O)c2c(ncn2C)n(C)c1=O [caffeine]
induction of Mre11-PPP in response to dsDNA fragments (xMre11; dsDNA fragments generated by HaeIII-digest): inhibited | induction of xMre11-PPP by circular plasmid DNA (xMre11; [1]): inhibited | activation of xFANCD2-L by circular plasmid DNA (xFANCD2; [1]): not significantly affected | MMC-induced recruitment of xFA proteins to chromatin (xFANCA, xFANCF, xFANCD2; MMC-treated replicating extracts plus caffeine): reversed | rescue of MMC-blocked replication (DNA replication; MMC 150 μM plus caffeine): could not be rescued | rescue of MMC-reduced replication (DNA replication; MMC-treated extracts plus caffeine (FIG. 3A top right)): rescued | rescue of MMC-inhibited replication (DNA replication; lower MMC concentration (50 μM) plus caffeine): could be rescued

COc1cc([C@@H]2c3cc4c(cc3[C@@H](O[C@@H]3O[C@@H]5CO[C@@H](C)O[C@H]5[C@H](O)[C@H]3O)[C@H]3COC(=O)[C@H]23)OCO4)cc(OC)c1O [etoposide]
induction of xFANCD2-L in the presence of circular plasmid DNA (xFANCD2): significantly blocked

ICRF-193
induction of xFANCD2-L in the presence of circular plasmid DNA (xFANCD2): significantly blocked
